± gives the standard deviation of the averaged measurements.
What was measured:
Assay in all cases: relative viability vs DMSO control (72 h) (fraction); higher = more viable cells
SW872 = tested on: SW872
In short: (§1)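 After seeding at densities set for 80–90% confluence in 384-well plates, sarcoma cell lines waited 24 h before 2.5 µl of serially diluted compound was added. Source plates held 10 mM down to 0.0002 mM. Plates were incubated 72 h at 37 °C with 5% CO2, with 0.1% DMSO vehicle and a 5 µM positive control, and relative viability was taken from ATPLite as percent growth averaged over up to triplicate wells, with 1 set as full and 0 as none.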

KHOS-240S = tested on: KHOS-240S
In short: as §1

SK-LMS-1 = tested on: SK-LMS-1
In short: as §1

SW1353 = tested on: SW1353
In short: as §1

RD-ES = tested on: RD-ES
In short: as §1

HT1080 = tested on: HT1080
In short: as §1

RD = tested on: RD
In short: as §1

SYO-1 = tested on: SYO-1
In short: as §1

G401 = tested on: G401
In short: as §1

HS729 = tested on: HS729
In short: as §1

SW684 = tested on: SW684
In short: as §1

KHOS-NP = tested on: KHOS-NP
In short: as §1

Cc1[nH]c(/C=C2\C(=O)Nc3ccccc32)c(C)c1CCC(=O)O [Orantinib]
relative viability (SW872; 0.00017 µM): 1.1 ± 0.053 | relative viability (SW872; 0.00051 µM): 1.12 ± 0.083 | relative viability (SW872; 0.00152 µM): 1.09 ± 0.036 | relative viability (SW872; 0.00457 µM): 1.1 ± 0.06 | relative viability (SW872; 0.01372 µM): 1.09 ± 0.045 | relative viability (SW872; 0.04115 µM): 1.08 ± 0.03 | relative viability (SW872; 0.1235 µM): 1.06 ± 0.015 | relative viability (SW872; 0.3704 µM): 1.04 ± 0.024 | relative viability (SW872; 1.111 µM): 1.08 ± 0.03 | relative viability (SW872; 3.333 µM): 1.05 ± 0.037 | relative viability (SW872; 10 µM): 1.013 ± 0.0074 | relative viability (KHOS-240S; 0.00017 µM): 1.04 ± 0.025 | relative viability (KHOS-240S; 0.00051 µM): 1.07 ± 0.034 | relative viability (KHOS-240S; 0.00152 µM): 1.087 ± 0.0054 | relative viability (KHOS-240S; 0.00457 µM): 1.06 ± 0.055 | relative viability (KHOS-240S; 0.01372 µM): 1.05 ± 0.029 | relative viability (KHOS-240S; 0.04115 µM): 1.065 ± 0.01 | relative viability (KHOS-240S; 0.1235 µM): 1.08 ± 0.045 | relative viability (KHOS-240S; 0.3704 µM): 1.09 ± 0.024 | relative viability (KHOS-240S; 1.111 µM): 1.03 ± 0.021 | relative viability (KHOS-240S; 3.333 µM): 1.06 ± 0.028 | relative viability (KHOS-240S; 10 µM): 0.963 ± 0.012 | relative viability (SK-LMS-1; 0.00017 µM): 1.06 ± 0.015 | relative viability (SK-LMS-1; 0.00051 µM): 1.072 ± 0.0029 | relative viability (SK-LMS-1; 0.00152 µM): 1.06 ± 0.034 | relative viability (SK-LMS-1; 0.00457 µM): 1.04 ± 0.036 | relative viability (SK-LMS-1; 0.01372 µM): 1.05 ± 0.027 | relative viability (SK-LMS-1; 0.04115 µM): 1.07 ± 0.055 | relative viability (SK-LMS-1; 0.1235 µM): 1.04 ± 0.033 | relative viability (SK-LMS-1; 0.3704 µM): 1.032 ± 0.0044 | relative viability (SK-LMS-1; 1.111 µM): 0.994 ± 0.032 | relative viability (SK-LMS-1; 3.333 µM): 0.971 ± 0.043 | relative viability (SK-LMS-1; 10 µM): 0.8874 ± 0.0061 | relative viability (SW1353; 0.00017 µM): 1.08 ± 0.017 | relative viability (SW1353; 0.00051 µM): 1.06 ± 0.038 | relative viability (SW1353; 0.00152 µM): 1.087 ± 0.006 | relative viability (SW1353; 0.00457 µM): 1.08 ± 0.019 | relative viability (SW1353; 0.01372 µM): 1.05 ± 0.012 | relative viability (SW1353; 0.04115 µM): 1.07 ± 0.035 | relative viability (SW1353; 0.1235 µM): 1.04 ± 0.019 | relative viability (SW1353; 0.3704 µM): 1.026 ± 0.0026 | relative viability (SW1353; 1.111 µM): 1 ± 0.014 | relative viability (SW1353; 3.333 µM): 0.963 ± 0.054 | relative viability (SW1353; 10 µM): 0.951 ± 0.061 | relative viability (RD-ES; 0.00017 µM): 1.02 ± 0.017 | relative viability (RD-ES; 0.00051 µM): 0.9951 ± 0.0033 | relative viability (RD-ES; 0.00152 µM): 1.01 ± 0.015 | relative viability (RD-ES; 0.00457 µM): 1.03 ± 0.031 | relative viability (RD-ES; 0.01372 µM): 1.03 ± 0.026 | relative viability (RD-ES; 0.04115 µM): 1.02 ± 0.034 | relative viability (RD-ES; 0.1235 µM): 1.01 ± 0.044 | relative viability (RD-ES; 0.3704 µM): 1 ± 0.025 | relative viability (RD-ES; 1.111 µM): 0.977 ± 0.032 | relative viability (RD-ES; 3.333 µM): 0.983 ± 0.019 | relative viability (RD-ES; 10 µM): 0.932 ± 0.031 | relative viability (HT1080; 0.00017 µM): 1.09 ± 0.059 | relative viability (HT1080; 0.00051 µM): 1.1 ± 0.033 | relative viability (HT1080; 0.00152 µM): 1.13 ± 0.044 | relative viability (HT1080; 0.00457 µM): 1.11 ± 0.024 | relative viability (HT1080; 0.01372 µM): 1.08 ± 0.029 | relative viability (HT1080; 0.04115 µM): 1.07 ± 0.053 | relative viability (HT1080; 0.1235 µM): 1.11 ± 0.033 | relative viability (HT1080; 0.3704 µM): 1.09 ± 0.043 | relative viability (HT1080; 1.111 µM): 1.05 ± 0.022 | relative viability (HT1080; 3.333 µM): 0.991 ± 0.031 | relative viability (HT1080; 10 µM): 0.947 ± 0.065 | relative viability (RD; 0.00017 µM): 1.05 ± 0.03 | relative viability (RD; 0.00051 µM): 1.08 ± 0.035 | relative viability (RD; 0.00152 µM): 1.1 ± 0.013 | relative viability (RD; 0.00457 µM): 1.12 ± 0.015 | relative viability (RD; 0.01372 µM): 1.11 ± 0.016 | relative viability (RD; 0.04115 µM): 1.09 ± 0.022 | relative viability (RD; 0.1235 µM): 1.12 ± 0.039 | relative viability (RD; 0.3704 µM): 1.11 ± 0.014 | relative viability (RD; 1.111 µM): 1.11 ± 0.03 | relative viability (RD; 3.333 µM): 1.07 ± 0.045 | relative viability (RD; 10 µM): 1.06 ± 0.033 | relative viability (SYO-1; 0.00017 µM): 1.012 ± 0.0092 | relative viability (SYO-1; 0.00051 µM): 1.01 ± 0.044 | relative viability (SYO-1; 0.00152 µM): 1.02 ± 0.048 | relative viability (SYO-1; 0.00457 µM): 1.02 ± 0.035 | relative viability (SYO-1; 0.01372 µM): 1.01 ± 0.023 | relative viability (SYO-1; 0.04115 µM): 1.03 ± 0.038 | relative viability (SYO-1; 0.1235 µM): 0.997 ± 0.047 | relative viability (SYO-1; 0.3704 µM): 0.979 ± 0.063 | relative viability (SYO-1; 1.111 µM): 0.973 ± 0.043 | relative viability (SYO-1; 3.333 µM): 0.945 ± 0.071 | relative viability (SYO-1; 10 µM): 0.799 ± 0.038 | relative viability (G401; 0.00017 µM): 1.07 ± 0.049 | relative viability (G401; 0.00051 µM): 1.11 ± 0.044 | relative viability (G401; 0.00152 µM): 1.07 ± 0.023 | relative viability (G401; 0.00457 µM): 1.08 ± 0.035 | relative viability (G401; 0.01372 µM): 1.07 ± 0.032 | relative viability (G401; 0.04115 µM): 1.04 ± 0.016 | relative viability (G401; 0.1235 µM): 1.057 ± 0.0082 | relative viability (G401; 0.3704 µM): 1.06 ± 0.036 | relative viability (G401; 1.111 µM): 1.05 ± 0.026 | relative viability (G401; 3.333 µM): 1.058 ± 0.0054 | relative viability (G401; 10 µM): 0.966 ± 0.02 | relative viability (HS729; 0.00017 µM): 1.07 ± 0.053 | relative viability (HS729; 0.00051 µM): 1.09 ± 0.043 | relative viability (HS729; 0.00152 µM): 1.08 ± 0.058 | relative viability (HS729; 0.00457 µM): 1.06 ± 0.043 | relative viability (HS729; 0.01372 µM): 1.04 ± 0.072 | relative viability (HS729; 0.04115 µM): 1.04 ± 0.054 | relative viability (HS729; 0.1235 µM): 0.997 ± 0.057 | relative viability (HS729; 0.3704 µM): 0.966 ± 0.023 | relative viability (HS729; 1.111 µM): 0.923 ± 0.014 | relative viability (HS729; 3.333 µM): 0.923 ± 0.021 | relative viability (HS729; 10 µM): 0.889 ± 0.015 | relative viability (SW684; 0.00017 µM): 1.19 ± 0.053 | relative viability (SW684; 0.00051 µM): 1.19 ± 0.086 | relative viability (SW684; 0.00152 µM): 1.23 ± 0.043 | relative viability (SW684; 0.00457 µM): 1.23 ± 0.039 | relative viability (SW684; 0.01372 µM): 1.18 ± 0.078 | relative viability (SW684; 0.04115 µM): 1.18 ± 0.12 | relative viability (SW684; 0.1235 µM): 1.19 ± 0.091 | relative viability (SW684; 0.3704 µM): 1.16 ± 0.05 | relative viability (SW684; 1.111 µM): 1.12 ± 0.031 | relative viability (SW684; 3.333 µM): 1.05 ± 0.06 | relative viability (SW684; 10 µM): 0.967 ± 0.058 | relative viability (KHOS-NP; 0.00017 µM): 1.088 ± 0.0069 | relative viability (KHOS-NP; 0.00051 µM): 1.122 ± 0.0089 | relative viability (KHOS-NP; 0.00152 µM): 1.12 ± 0.012 | relative viability (KHOS-NP; 0.00457 µM): 1.12 ± 0.024 | relative viability (KHOS-NP; 0.01372 µM): 1.11 ± 0.018 | relative viability (KHOS-NP; 0.04115 µM): 1.11 ± 0.037 | relative viability (KHOS-NP; 0.1235 µM): 1.11 ± 0.044 | relative viability (KHOS-NP; 0.3704 µM): 1.1 ± 0.03 | relative viability (KHOS-NP; 1.111 µM): 1.09 ± 0.034 | relative viability (KHOS-NP; 3.333 µM): 1.1 ± 0.043 | relative viability (KHOS-NP; 10 µM): 1.08 ± 0.046

Reference: the supplement of paper PMC10883282
